The OligoGym collection
HELM strings list units from the 5' end as sugar, base in round brackets, then linkage (d deoxyribose, r ribose, m 2'-O-methyl, p phosphodiester). Strings are as the collection lists them; they lack the last nucleoside at the 3' end of the tested compound. [moe] = 2'-O-(2-methoxyethyl) (MOE); [sp] = phosphorothioate linkage; [m5C] = 5-methylcytosine

Target: UBE3A-ATS
Assay: mouse, dose not given
Details: ASO

Row | Substance | 3 h FOB score
1 | RNA1{[moe]([m5C])[sp].[moe]([m5C])p.[moe]([m5C])p.[moe](A)p.[moe](T)p.d(T)[sp].d(A)[sp].d(G)[sp].d(A)[sp].d([m5C])[sp].d([m5C])[sp].d([m5C])[sp].d(A)[sp].d(T)[sp].d(G)[sp].[moe](G)p.[moe]([m5C])p.[moe](T)[sp].[moe]([m5C])}$$$$ (last 3' nucleoside missing) | 7 score 0-7
2 | RNA1{[moe]([m5C])[sp].[moe]([m5C])p.[moe]([m5C])p.[moe](A)p.[moe](T)p.d(T)[sp].d([m5C])[sp].d(A)[sp].d(G)[sp].d([m5C])[sp].d(A)[sp].d([m5C])[sp].d(T)[sp].d(T)[sp].d(A)[sp].[moe](G)p.[moe](G)p.[moe](T)[sp].[moe](A)}$$$$ (last 3' nucleoside missing) | 4.8 score 0-7
